Series [1] has as its system primary human hepatocytes (PHH). Kind of series: Neutral lipids with Nile red in primary human hepatocytes. The following applies: 4 days. The series is classed as cell-based. On the procedure: Primary human hepatocytes (PHH) were purchased from Biopredic International (Saint-Grégoire, France). Cells were seeded by the supplier in coated 96-well plates at a density of 5 × 10^4 cells/well. Upon receipt, culture medium was removed and replaced by William’s E medium supplemented as previously described for HepaRG cell differentiation, except for DMSO set at 1%. After 2–3 days, cells were treated as for HepaRG cells. For HepaRG cells and PHH, cells were always maintained in incubators at 37 °C with 5% CO2 and saturating humidity.
Cells were then incubated with PBS containing 0.1 μg/mL Nile red for 30 min and washed once. […] For each well, four pictures were taken at a magnification of × 20 and analyzed with Columbus software (PerkinElmer) for quantification. These pictures were always taken in four different areas around the center of each well, and these areas were the same from one well to another, as programmed by the Columbus software. This software was also designed to count only living cells after exclusion of dying cells harboring nuclei with abnormal shape or altered Hoechst intensity. […] Neutral lipids were then normalized per number of nuclei and expressed relative to control cells. Examples of images used for neutral lipid quantification are shown in Supplementary Fig. 2.

For series [2], the system named is apoB secretion. The series can be described thus: apoB level in culture medium (ELISA), HepaRG cells. The series is classed as cell-based, human. The following applies: 4 days, culture medium, vs control.
The test system of series [3] is permeabilized HepaRG cells. The series can be described thus: Oxygen consumption in permeabilized HepaRG cells (Seahorse). The following applies: for EC20 values for inhibition of O2 consumption, Glutamate + malate / EC20 values for inhibition of O2 consumption, Octanoyl-L-carnitine / EC20 values for inhibition of O2 consumption, Palmitoyl-CoA + L-carnitine / EC20 values for inhibition of O2 consumption, Palmitoyl-L-carnitine: state 3, mean ± SD, 2-3 runs. The series is classed as cell-based, human. On the procedure:
Cryopreserved differentiated HepaRG cells (HPR116, Biopredic International) were thawed and seeded at 36,000 cells/well in Seahorse XFe96 cell culture microplate (Agilent) in HepaRG® Thawing/Plating/General Purpose Medium Supplement with antibiotics (Biopredic International) combined with 100 mL of William’s Medium E (Sigma) and incubated at 37 °C with 5% CO2. The day after, medium was replaced by HepaRG Maintenance/Metabolism Medium Supplement with antibiotics (Biopredic International) combined with 100 mL of William’s Medium E. […] Two technical replicates were carried out per condition in two to three independent experimental runs.

In series [4] the test system is IRE1α. The series can be described thus: Western blot total IRE1α in HepaRG cells. Type of series: cell-based, human. How it is done:
Cells were lysed in ice-cold CelLytic M buffer (C2978; Sigma Aldrich) containing phosphatase and protease inhibitors from Roche Applied Science (Penzberg, Germany). Protein concentration was determined using the Pierce BCA Protein Assay Kit (Thermo Fisher Scientific) and equal amounts of protein were diluted with NuPAGE LDS Sample Buffer (Thermo Fisher Scientific). Samples (ca. 25 μg of proteins) were then separated by SDS-PAGE using NuPAGE 4–12% Bis-Tris gels (Thermo Fisher Scientific). Proteins were transferred to PVDF membranes (BioRad) and Ponceau S staining was used to confirm equal loading and transfer. Membranes were blocked in 7.5% milk in TBST (10 mM Tris–HCl, 100 mM NaCl, 0.02% Tween 20) for 1 h at room temperature and incubated overnight at 4 °C with antibodies against phospho-IRE1α (Ser724) (Abcam, ab124945), IRE1α (Cell Signaling, 3294), or HSC70 (Santa Cruz, sc-7298), whose dilutions were 1:1000. […] Protein content was quantified by densitometry with ImageJ software (National Institutes of Health, Bethesda, MD).
For orientation: In western blotting, separated proteins are transferred to a membrane and probed.

In series [5] the test system is ERN1 (IRE1α). Kind of series: RT-qPCR ERN1 mRNA in HepaRG cells. Type of series: cell-based, human. The following applies: 4 days, vs control. The method, boiled down:
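DNase-treated total RNA from HepaRG cells reverse-transcribed and quantified by SYBR Green RT-qPCR. Expression normalised to GAPDH and given as relative values by the 2^−ΔΔCt method.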

For `COc1ccc2c(c1)c(CC(=O)O)c(C)n2C(=O)c1ccc(Cl)cc1` [INDO, indomethacin], the “Steatosis in PHH batches (six batches tested)” value in series [1] is “steatotic in two PHH batches”. For the same compound, the “Effect on apoB secretion” value in series [2] is given as “reduced the secretion”. In series [3], the “EC20 values for inhibition of O2 consumption, Glutamate + malate” value was found to be 119 ± 20 µM; the “EC20 values for inhibition of O2 consumption, Octanoyl-L-carnitine” value worked out at 150 ± 11 µM; the “EC20 values for inhibition of O2 consumption, Palmitoyl-CoA + L-carnitine” value was determined as 79 ± 8 µM; the “EC20 values for inhibition of O2 consumption, Palmitoyl-L-carnitine” value is 163 ± 26 µM. Moreover, the “Protein level of total IRE1α” value in series [4] is given as “increased protein level”. The “ERN1 (IRE1α) mRNA level” value in series [5] is given as “enhanced IRE1α mRNA level”.

In the case of `CO[C@H]1/C=C/O[C@@]2(C)Oc3c(C)c(O)c4c(O)c(c(/C=N/N5CCN(C)CC5)c(O)c4c3C2=O)NC(=O)/C(C)=C\C=C\[C@H](C)[C@H](O)[C@@H](C)[C@@H](O)[C@@H](C)[C@H](OC(C)=O)[C@@H]1C` [RIF, rifampicin], the “Steatosis in PHH batches (six batches tested)” value in series [1] is given as “induced steatosis in only one PHH batch”. Further, the “Effect on apoB secretion” value in series [2] is “reduced the secretion”. The “EC20 for inhibition of O2 consumption, all substrates” value in series [3] (all four substrates) was “above 200 μM”. In addition, in series [3], the “EC20 values for inhibition of O2 consumption, Glutamate + malate” value is more than 200 µM; the “EC20 values for inhibition of O2 consumption, Octanoyl-L-carnitine” value is more than 200 µM; the “EC20 values for inhibition of O2 consumption, Palmitoyl-CoA + L-carnitine” value is more than 200 µM; the “EC20 values for inhibition of O2 consumption, Palmitoyl-L-carnitine” value was more than 200 µM. For the same compound, the “Protein level of total IRE1α” value in series [4] is recorded as “increased protein level”. In series [5], the “ERN1 (IRE1α) mRNA level” value is listed as “enhanced IRE1α mRNA level”.

The values above are taken from paper PMC8012331, “Drug-induced hepatic steatosis in absence of severe mitochondrial dysfunction in HepaRG cells: proof of multiple mechanism-based toxicity” (Cell Biology and Toxicology, 2020).
